Entries after “also recorded” stand apart in the source; their conditions may differ.
Assays:
[1] = Ligand dilution in native MS buffer (precipitation); format: physicochemical; settings: 1 M NH4Ac pH 7.5
TGT homodimer = tested on: T1, TGT homodimer; test: Native ESI-MS of TGT:ligand 1:10 mixtures (dimer destabilization); design: species or system Zymomonas mobilis; settings: for Relative proportion of TGT monomers: 2.5 µM TGT and 25 µM inhibitor (1:10), 1 M NH4Ac pH 7.5, without ligand 3.3 ± 0.7 %; for effect on TGT dimer stability / monomer proportion, in words: compared to measurements in the absence of any ligand, TGT:ligand 1:10
T1 construct: Strep-tag II (N, cleaved yes); made in house; host or cells: Escherichia coli
Procedure: In order to gain insights into the dimer disturbing potential seen in the crystal structures with the different ligands and to collect evidence for such a behavior also present in solution, native ESI-MS was performed. This technique enables to monitor the oligomerization state of TGT at equilibrium under non-denaturing conditions, in the absence or presence of saturating ligand concentrations. […] To ensure reliability, these comparative experiments were thus carried out adhering to strictly similar conditions (see Materials and methods).
Relative proportions of TGT-monomer signals extracted from individual 1:10 TGT:ligand mixtures (TGT monomer 2.5 μM) were quantified (S7 Fig, S1 Table) and normalized with respect to this value in the absence of any inhibitor.
Nano-ESI-MS analyses were performed as already described in the literature. Briefly, WT-TGT samples were exchanged twice against a 1 M ammonium acetate pH 7.5 buffer using microcentrifuge gel-filtration columns (Zeba 0.5 mL, Thermo Scientific). Next, protein concentration was determined spectrophotometrically at 280 nm (Nano-Drop 2000 spectrophotometer, Thermo Scientific).
Native MS experiments were carried out on a hybrid Q-TOF mass spectrometer (Synapt G2 HDMS, Waters) equipped with an automated chip-based nanoESI source (Triversa Nanomate, Advion Biosciences) operating in the positive ion mode. External calibrations were generated from the multiple charged ions produced by a 2 μM horse heart myoglobin solution diluted in a 1:1 (v/v) water: acetonitrile mixture acidified with 1% (v/v) formic acid (denaturing MS) and singly charged cesium iodide clusters diluted to 2 g∙L^-1 in a 1:1 (v/v) water: isopropanol solution (native MS).
Titration experiments in native conditions (1 M NH4Ac pH 7.5) were next triggered by mixing 2.5 μM TGT monomers with 25 μM of each ligand separately (ratio 1:10). The final DMSO concentration of each mixture never exceeded 0.25% (v/v). Non-covalent TGT dimers and TGT-ligand complexes were preserved in the gas phase according fine-tuned instrumental parameters, improving ion desolvation and transmission while maintaining intact structures (Vc = 80V, Pi = 6 mbar).
Relative quantification of TGT monomers was performed from charge states peak intensities of both monomeric (10 to 14+) and dimeric complexes (15 to 20+), using MassLynx 4.1 (Waters). TGT dimer disruption was determined for each ligand through their destabilization factor (Fig 8) which corresponds to their associated ratio of TGT monomers normalized from the apo-condition (S7 Fig; S1 Table). Standard deviations are calculated here from analytical triplicates. For the sake of reliability and comparability, all these experiments were performed within the same day, from identical experimental and instrumental conditions using the same buffer exchanged TGT batch (frozen and thawed only once).

Z. mobilis TGT [2] = target: T2, Z. mobilis TGT (Zymomonas mobilis subsp. mobilis, UniProt P28720); settings: cited from earlier work; for Ki / affinity as described in words: radio-labeled assay, determined previously
T2 construct: Strep-tag II (N, cleaved yes); made in house; host or cells: Escherichia coli
T2 sequence (P28720 whole entry): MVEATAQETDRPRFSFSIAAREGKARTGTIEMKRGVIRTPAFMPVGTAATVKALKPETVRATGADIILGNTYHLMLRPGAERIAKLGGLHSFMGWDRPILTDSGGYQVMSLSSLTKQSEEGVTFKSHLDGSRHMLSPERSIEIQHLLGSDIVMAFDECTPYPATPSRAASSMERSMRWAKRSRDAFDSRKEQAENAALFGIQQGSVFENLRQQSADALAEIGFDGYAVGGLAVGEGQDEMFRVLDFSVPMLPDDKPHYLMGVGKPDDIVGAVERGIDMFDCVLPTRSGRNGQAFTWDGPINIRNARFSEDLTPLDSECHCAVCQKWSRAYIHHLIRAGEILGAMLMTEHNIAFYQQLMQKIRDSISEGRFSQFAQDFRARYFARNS

Z. mobilis TGT [3] = target: T2, Z. mobilis TGT; test: Isothermal titration calorimetry (ITC) of ligand binding to TGT; settings: for thermodynamic binding signature in words / Kd / ΔG^0: ITC; for Kd: 298 K, direct titration; for ΔG^0: calculated at 298.15 K; for ΔH^0bind: ionization corrected (intercept of ΔH^0obs vs buffer ΔH^0ion); for -TΔΔS^0 / ΔΔH^0: relative to 1 used as reference; for protons picked up during binding: slope of linear regression, average over inhibitors 2 and 5
Source text: To further analyze the binding properties of ligands studied in this contribution we decided to establish the thermodynamic analysis of a representative subset via isothermal titration calorimetry (ITC) (data for 1 had been determined previously). ITC enables the simultaneous determination of affinity (Kd) and stoichiometry (n) as well as enthalpic contribution (ΔH^0). The entropic (-TΔS^0) term to Gibbs free energy (ΔG^0 = ΔH^0—TΔS^0) results from ΔG^0–ΔH^0 difference. Due to insufficient availability of some compounds in high purity, quantity and sufficient solubility to perform proper ITC measurements, we decided to focus our investigation on 1, 2, 3 and 5.
We recently discovered that the binding of lin-benzoguanine derivatives is associated with protonation effects that are superimposed to the heat signal of ligand binding to TGT. […] Such protonation effects become transparent when ITC measurements are performed from at least three different buffers (see Materials and methods). The overlaid […] of the protonation step was determined as the intersection of the linear regression line obtained by plotting the observed enthalpies of the studied ligands (ΔH^0obs) against the heat of ionization of the corresponding buffers (ΔH^0ion) (Fig 9a). […] The examined inhibitors 2 and 5, on average receive 0.61 ± 0.04 protons per mole of the formed complex, which is in reasonable agreement with the results obtained for 1 (0.89) and similar compounds [29].
ITC measurements were performed using a Microcal ITC200 calorimeter system from GE Healthcare. Z. mobilis TGT was dissolved in the ITC buffer (50 mM HEPES/Tricin/TRIS pH 7.8, 200 mM NaCl, 0.037% (v/v) Tween 20 and 3% (v/v) DMSO) to a final concentration of 10–20 μM.
The inhibitors were first dissolved in 100% (v/v) DMSO and diluted with the buffer solution to a final DMSO concentration of 3% (v/v). The concentration of the inhibitor in the syringe was adjusted to 200–300 μM with the ITC buffer. The reference cell contained filtered demineralized water. […] The initial delay before the injections were started was adjusted to 180–300 s and the spacing between each injection to 150–180 s. The first injection contained 0.3–0.6 μL of the inhibitor solution followed by injections of 1.0–2.4 μL until a saturation occurred. A stirring speed of 750 rpm was chosen. Raw data were collected as released heat per time. The direct titrations were done in three different buffers (HEPES/Tricin/TRIS) to correct for the overlaid protonation effect as previously described.The measured ΔH^0obs were plotted on the ordinate and the ionization enthalpy of the corresponding buffer ΔH^0ion on the abscissa (Fig 9). The positive slope of the linear regression line indicates how many protons per mole of formed complex are entrapped.
For estimation of binding affinity (Kd), Z. mobilis TGT was incubated with 90–100% saturation of inhibitor 3. Protein saturation was calculated according Rühmann et al. (2015). Inhibitor 1 as strong titrant was used to displace inhibitor 3.
For analysis of the raw data, peak integration, model fitting and evaluation, the programs NITPIC [57] and SEDPHAT [58] were used. The initial injection peak was removed and the areas of the remaining peaks were integrated. The correction of the heats of dilution was conducted by subtraction of the final constant injection peak area integrals. The A+B ↔ AB hetero-association model (1:1 stoichiometry) was applied, whereby ΔH^0 and Kd were directly obtained. The ΔG^0 and -TΔS^0 values were calculated using a temperature of 298.15 K. For illustration of the integrated raw data and the ITC isotherms, the program GUSSI was used. Obtained thermodynamic data per buffer are reported as mean values averaged over at least three measurements.

[4] = HEPES buffer, Gibbs-Helmholtz equation
[5] = TRIS buffer, Gibbs-Helmholtz equation
[6] = Tricin buffer, Gibbs-Helmholtz equation

CNc1nc2c(CCNCC3CCCCC3)c3nc(N)[nH]c(=O)c3cc2[nH]1 [Inhibitor 6]
precipitation upon ligand dilution in buffer [1]: partial precipitation; also recorded: apparent precipitation | Relative proportion of TGT monomers (TGT homodimer): 2.5% | effect on TGT dimer stability / monomer proportion, in words (TGT homodimer): did not exert any influence on dimer stability | Ki / affinity as described in words (Z. mobilis TGT [2]): single-digit nanomolar

COc1ccc(CCc2c3nc[nH]c3cc3c(=O)[nH]c(N)nc23)cc1 [Inhibitor 7]
Relative proportion of TGT monomers (TGT homodimer): 9.4% | effect on TGT dimer stability / monomer proportion, in words (TGT homodimer): slightly increased proportion of TGT monomer

Cc1ccc(CCc2c3nc[nH]c3cc3c(=O)[nH]c(N)nc23)cc1 [Inhibitor 8]
Relative proportion of TGT monomers (TGT homodimer): 7.1% | effect on TGT dimer stability / monomer proportion, in words (TGT homodimer): slightly increased proportion of TGT monomer

CNc1nc2c(CC[C@H]3O[C@@H](OC)[C@H](O)[C@@H]3OC)c3nc(N)[nH]c(=O)c3cc2[nH]1 [Inhibitor 3]
heat signal in ITC, direct titration of ligand to TGT (Z. mobilis TGT [3]; HEPES, Tricin, TRIS buffers, also up to 308 K in HEPES): no heat effects at all could be detected; also recorded: no detectable heat signal | thermodynamic binding signature in words (Z. mobilis TGT [3]): overwhelmingly entropy-driven; also recorded: pure entropically-driven binding signature | heat signal in ITC displacement titration (Z. mobilis TGT [3]; TGT 100% saturated with 3, 1 as titrant, HEPES): again no heat signal was recorded | binding constant from ITC displacement experiments, in words (Z. mobilis TGT [3]; TGT saturated about 90% with 3, 1 as titrant): falls close to that of 1 | Relative proportion of TGT monomers (TGT homodimer): 9.6% | effect on TGT dimer stability / monomer proportion, in words (TGT homodimer): slightly increased proportion of TGT monomer | Ki / affinity as described in words (Z. mobilis TGT [2]): submicromolar; also recorded: three-digit nanomolar

Nc1nc2cc3nc[nH]c3cc2c(=O)[nH]1 [lin-benzoguanine, reference compound]
Ki (Z. mobilis TGT [2]): 4100 ± 1000 nM

CNc1nc2c(CC[C@H]3O[C@@H](OC)[C@H](O)[C@@H]3O)c3nc(N)[nH]c(=O)c3cc2[nH]1 [Inhibitor 2]
ΔH^0obs (Z. mobilis TGT [3]; HEPES buffer): -40.2 ± 2.2 kJ/mol | -TΔS^0 (Z. mobilis TGT [3]; [4]): 2.4 ± 2.1 kJ/mol | thermodynamic binding signature in words (Z. mobilis TGT [3]): more enthalpically favored binder | Kd (Z. mobilis TGT [3]): 275 ± 49 nM | ΔG^0 (Z. mobilis TGT [3]): -37.9 ± 0.4 kJ/mol | ΔH^0obs (Z. mobilis TGT [3]; TRIS buffer): -23.5 ± 2.0 kJ/mol | -TΔS^0 (Z. mobilis TGT [3]; [5]): -14.1 ± 1.6 kJ/mol | ΔH^0obs (Z. mobilis TGT [3]; Tricin buffer): -35.6 ± 3.2 kJ/mol | -TΔS^0 (Z. mobilis TGT [3]; [6]): -2.7 ± 2.7 kJ/mol | -TΔS^0 (Z. mobilis TGT [3]; ionization corrected): 15.9 kJ/mol | ΔH^0bind (Z. mobilis TGT [3]): -53.9 kJ/mol | -TΔΔS^0 (Z. mobilis TGT [3]; ionization corrected): -36.1 kJ/mol | ΔΔH^0 (Z. mobilis TGT [3]; ionization corrected): 39.7 kJ/mol | protons picked up during binding (Z. mobilis TGT [3]): 0.61 ± 0.04 protons per mole of the formed complex | Relative proportion of TGT monomers (TGT homodimer): 5.3% | effect on TGT dimer stability / monomer proportion, in words (TGT homodimer): No effect on dimer stability | Ki (Z. mobilis TGT [2]): 217 ± 81 nM | Ki / affinity as described in words (Z. mobilis TGT [2]): three-digit nanomolar

CNc1nc2c(CCNCC3CCCC3)c3nc(N)[nH]c(=O)c3cc2[nH]1 [Inhibitor 5]
ΔH^0obs (Z. mobilis TGT [3]; HEPES buffer): -50.2 ± 3.4 kJ/mol | -TΔS^0 (Z. mobilis TGT [3]; [4]): 6.2 ± 3.7 kJ/mol | Kd (Z. mobilis TGT [3]): 32 ± 9 nM | ΔG^0 (Z. mobilis TGT [3]): -43.1 ± 0.8 kJ/mol | ΔH^0obs (Z. mobilis TGT [3]; TRIS buffer): -34.3 ± 2.2 kJ/mol | -TΔS^0 (Z. mobilis TGT [3]; [5]): -8.3 ± 1.4 kJ/mol | ΔH^0obs (Z. mobilis TGT [3]; Tricin buffer): -43.2 ± 4.1 kJ/mol | -TΔS^0 (Z. mobilis TGT [3]; [6]): 0.5 ± 3.3 kJ/mol | -TΔS^0 (Z. mobilis TGT [3]; ionization corrected): 18.8 kJ/mol | ΔH^0bind (Z. mobilis TGT [3]): -61.9 kJ/mol | -TΔΔS^0 (Z. mobilis TGT [3]; ionization corrected): -33.2 kJ/mol | ΔΔH^0 (Z. mobilis TGT [3]; ionization corrected): 31.7 kJ/mol | protons picked up during binding (Z. mobilis TGT [3]): 0.61 ± 0.04 protons per mole of the formed complex | Relative proportion of TGT monomers (TGT homodimer): 4.2% | effect on TGT dimer stability / monomer proportion, in words (TGT homodimer): No effect on dimer stability | Ki (Z. mobilis TGT [2]): 2 ± 1 nM | Ki / affinity as described in words (Z. mobilis TGT [2]): single-digit nanomolar

Nc1nc2c(CCc3ccccc3)c3nc[nH]c3cc2c(=O)[nH]1 [Inhibitor 9]
Relative proportion of TGT monomers (TGT homodimer): 12.6% | effect on TGT dimer stability / monomer proportion, in words (TGT homodimer): slightly increased proportion of TGT monomer; also recorded: most significant increase of normalized monomer proportion
